Experimental data from patent EP1268487B1, “TRICYCLIC PROTEIN KINASE INHIBITORS” (Wyeth, priority 2000, dated 2001).
Values after ≈ are worked out from the molar mass of the structure shown.

Assays:
[1] = test system: 3T3; test: Inhibition of cancer cell growth as measured by cell number (Sulforhodamine B); format: cell-based; conditions: Mus musculus, NIH3T3; 48 hours exposure
Protocol: (§1) Human tumor cell lines were plated in 96-well plates (250 µl/well, 1-6 x 10^4 cells/ml) in RPMI 1640 medium, containing 5% FBS (Fetal Bovine Serum). […] After 48 hours exposure to test compounds, cells were fixed with trichloroacetic acid, and stained with Sulforhodamine B. After washing with trichloroacetic acid, bound dye was solubilized in 10 mM Tris base and optical density was determined using a plate reader. Under conditions of the assay the optical density is proportional to the number of cells in the well. IC50s (concentrations causing 50% inhibition of cell growth) were determined from the growth inhibition plots. The test procedure is described in details by Philip Skehan et. al, J.Natl. Canc. Inst., 82, 1107-1112 (1990). […] Information about some of the cell lines used in these test procedures is available from the American Type Tissue Collection: Cell Lines and Hybridomas, 1994 Reference Guide, 8th Edition. The Her2Neu cell line is a 3T3 line that has been transfected with Her2 receptor kinase.

[2] = test system: SKBR3; test: as above; format: cell-based; conditions: Homo sapiens, SK-BR-3; 48 hours exposure
Protocol: as §1

[3] = test system: MDA435; test: as above; format: cell-based; conditions: Homo sapiens, 48 hours exposure
Protocol: as §1

[4] = test system: A431; test: as above; format: cell-based; conditions: Homo sapiens, A-431; 48 hours exposure
Protocol: as §1

[5] = test system: Her2Neu; test: as above; format: cell-based; conditions: 48 hours exposure; 3T3 line transfected with Her2 receptor kinase
Protocol: as §1

[6] = test system: SW620; test: as above; format: cell-based; conditions: Homo sapiens, SW-620; 48 hours exposure
Protocol: as §1

[7] = target: T1, Epidermal Growth Factor Receptor Kinase (EGF-R) (Homo sapiens, UniProt P00533); test: Inhibition of Epidermal Growth Factor Receptor Kinase (EGF-R) using recombinant enzyme; format: biochemical
T1 construct: containing the EGFR cDNA encoding amino acids 645 - 1186 preceded by Met-Ala-(His)6; Met-Ala-(His)6 (N); made in house; host or cells: Sf9 insect cells (baculovirus vHcEGFR52)
Protocol: Representative test compounds were evaluated for their ability to inhibit the phosphorylation of the tyrosine residue of a peptide substrate catalyzed by the enzyme epidermal growth factor receptor kinase. The peptide substrate (RR-SRC) has the sequence arg-arg-leu-ile-glu-asp-ala-glu-tyr-ala-ala-arg-gly. The enzyme used in this assay is the His-tagged cytoplasmic domain of EGFR. A recombinant baculovirus (vHcEGFR52) was constructed containing the EGFR cDNA encoding amino acids 645 - 1186 preceded by Met-Ala-(His)6. Sf9 cells in 100 mm plates were infected at an moi of 10 pfu/cell and cells were harvested 48 hours post infection. A cytoplasmic extract was prepared using 1% Triton X-100 and applied to Ni-NTA column. After washing the column with 20 mM imidazole, HcEGFR was eluted with 250 mM imidazole (in 50 mM Na2HPO4, pH 8.0, 300 mM NaCl). Fractions collected were dialyzed against 10 mM HEPES, pH 7.0, 50 mM NaCl, 10% glycerol, 1µg/mL antipain and leupeptin and 0.1 mM Pefabloc SC. The protein was frozen in dry ice/methanol and stored -70° C.
Test compounds were made into 10 mg/mL stock solutions in 100% dimethylsulfoxide (DMSO). Prior to experiment, stock solutions were diluted to 500 µM with 100% DMSO and then serially diluted to the desired concentration with HEPES buffer (30 mM HEPES pH 7.4).
For the enzyme reaction, 10 µL of each inhibitor (at various concentrations) were added to each well of a 96-well plate. To this was added 3 µL of enzyme (1:10 dilution in 10mM HEPES, pH 7.4 for final conc. of 1:120). This was allowed to sit for 10 minutes on ice and was followed by the addition of 5 µl peptide (80 uM final conc.), 10µl of 4X Buffer (Table A), 0.25 µL ^33P-ATP and 12 µL H2O. The reaction was allowed to run for 90 minutes at room temperature and was followed by spotting the entire volume on to precut P81 filter papers. The filter discs were washed 2X with 0.5% phosphoric acid and radioactivity was measured using a liquid scintillation counter. Table A
The inhibition data for representative compounds of the invention are shown below in TABLE 1. The IC50 is the concentration of test compound needed to reduce the total amount of phosphorylated substrate by 50%. The % inhibition of the test compound was determined for at least three different concentrations and the IC50 value was evaluated from the dose response curve. […] CPM(control) is in units of counts per minute and was a number expressing the amount of radiolabeled ATP (γ-^33P) incorporated into the RR-SRC peptide substrate by the enzyme after 90 minutes at room temperature in the absence of test compound as measured by liquid scintillation counting. The CPM values were corrected for the background counts produced by ATP in the absence of the enzymatic reaction. Where it was possible to determine an IC50 value, this is reported in TABLE 1 otherwise the % inhibition at 0.5 µM concentration of test compound is shown in TABLE 1.

T1 sequence (P00533 669-1210): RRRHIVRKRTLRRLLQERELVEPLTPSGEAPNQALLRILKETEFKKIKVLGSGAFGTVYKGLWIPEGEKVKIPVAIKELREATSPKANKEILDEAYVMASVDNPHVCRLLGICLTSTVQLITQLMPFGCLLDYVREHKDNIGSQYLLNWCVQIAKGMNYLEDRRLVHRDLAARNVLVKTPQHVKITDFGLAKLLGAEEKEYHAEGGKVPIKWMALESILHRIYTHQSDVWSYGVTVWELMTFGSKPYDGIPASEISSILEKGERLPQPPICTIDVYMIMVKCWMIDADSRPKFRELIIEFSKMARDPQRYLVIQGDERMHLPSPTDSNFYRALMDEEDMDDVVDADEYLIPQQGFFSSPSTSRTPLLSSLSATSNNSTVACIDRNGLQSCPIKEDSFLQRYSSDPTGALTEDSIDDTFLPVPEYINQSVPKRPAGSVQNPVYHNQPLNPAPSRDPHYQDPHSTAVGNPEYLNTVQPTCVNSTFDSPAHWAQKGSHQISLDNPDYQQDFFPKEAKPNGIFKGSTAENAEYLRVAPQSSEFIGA

Question: Which results are given for N#Cc1cnc2cc3c(cc2c1Nc1ccc(F)c(Cl)c1)NCCO3 [Example 7, 9-(3-Chloro-4-fluoroanilino)-2,3-dihydro-1H-[1,4]oxazino[3,2-g]quinoline-8-carbonitrile]?
Answer: IC50 [1]: 3.02 µg/mL (≈ 8.51 µM); IC50 [2]: 0.968 µg/mL (≈ 2.73 µM); IC50 [3]: 1.43 µg/mL (≈ 4.03 µM); IC50 [4]: 0.527 µg/mL (≈ 1.49 µM); IC50 [5]: 3.9 µg/mL (≈ 11 µM); IC50 [6]: 2.9 µg/mL (≈ 8.17 µM); inhibition at 0.5 µM ([7]; 0.5 µM concentration of test compound): 35.5%; IC50 ([7]; recombinant enzyme): 1000 nM
